From ChEMBL document CHEMBL3734678, “Protective effect and mechanism of action of lupane triterpenes from Cornus walteri in cisplatin-induced nephrotoxicity” (2015) come the findings set out here.

Activity calls are given as the source filed them. The calls are words filed in the database; no cut-off is given here.

The test system of experiment [1] is LLC-PK1. In words: Renoprotective activity in pig LLC-PK1 cells assessed as reduction in cisplatin-induced toxicity preincubated for 2 hrs followed by cisplatin challenge for 24 hrs by MTT assay. Type of experiment: functional, cell-based. Conditions: Sus scrofa. On the technique in general: Tetrazolium dyes change colour on reduction, which living cells bring about.

For experiment [2], the system named is LLC-PK1. The experiment in a line: Renoprotective activity against cisplatin induced toxicity in pig LLC-PK1 cells assessed as reduction in apoptotic cells at 125 uM preincubated for 2 hrs followed by cisplatin challenge for 24 hrs annexin-V-FITC and propidium iodide staining based flow cytometry. In kind it is functional, cell-based. Conditions: Sus scrofa.

For experiment [3], the system named is LLC-PK1. In words: Renoprotective activity in pig LLC-PK1 cells assessed as reduction in cisplatin-induced toxicity at 250 uM preincubated for 2 hrs followed by cisplatin challenge for 24 hrs by MTT assay. Type of experiment: functional, Sus scrofa. On the set-up: scale not given: the % may be the effect or the level left.
The test system of experiment [4] is LLC-PK1. The experiment in a line: Renoprotective activity in pig LLC-PK1 cells assessed as reduction in cisplatin-induced toxicity at 125 uM preincubated for 2 hrs followed by cisplatin challenge for 24 hrs by MTT assay. In kind it is functional, Sus scrofa. On the set-up: scale not given: the % may be the effect or the level left.
The subject of experiment [5] is LLC-PK1. In words: Inhibition of cisplatin-induced JNK phosphorylation in pig LLC-PK1 cells at 125 uM preincubated for 2 hrs followed by cisplatin challenge for 24 hrs by western blot analysis. In kind it is cell-based. The conditions noted are these: Sus scrofa. (Immunoblotting shows a protein as a band on a membrane.)
The test system of experiment [6] is LLC-PK1. In words: Inhibition of cisplatin-induced ERK phosphorylation in pig LLC-PK1 cells at 125 uM preincubated for 2 hrs followed by cisplatin challenge for 24 hrs by western blot analysis. Type of experiment: cell-based. The conditions noted are these: Sus scrofa.
In experiment [7] the test system is LLC-PK1. The experiment in a line: Inhibition of cisplatin-induced p38 phosphorylation in pig LLC-PK1 cells at 125 uM preincubated for 2 hrs followed by cisplatin challenge for 24 hrs by western blot analysis. Conditions: Sus scrofa. In kind it is cell-based.
For experiment [8], the system named is LLC-PK1. The experiment in a line: Renoprotective activity in pig LLC-PK1 cells assessed as reduction in cisplatin-induced progressive condensation at 125 uM preincubated for 2 hrs followed by cisplatin challenge for 24 hrs by phase-contrast microscopic analysis. The conditions noted are these: Sus scrofa. Type of experiment: functional, cell-based.
Experiment [9] has as its system LLC-PK1. The experiment in a line: Renoprotective activity in pig LLC-PK1 cells assessed as reduction in cisplatin-induced nucleus break-up at 125 uM preincubated for 2 hrs followed by cisplatin challenge for 24 hrs by phase-contrast microscopic analysis. Conditions: Sus scrofa. In kind it is functional, cell-based.
Experiment [10] concerns LLC-PK1. The experiment in a line: Renoprotective activity in pig LLC-PK1 cells assessed as reduction in cisplatin-induced cell shrank at 125 uM preincubated for 2 hrs followed by cisplatin challenge for 24 hrs by phase-contrast microscopic analysis. Type of experiment: functional, cell-based. Conditions: Sus scrofa.
For experiment [11], the system named is LLC-PK1. The experiment in a line: Renoprotective activity in pig LLC-PK1 cells assessed as inhibition of cisplatin-induced cleaved caspase-3 expression at 125 uM preincubated for 2 hrs followed by cisplatin challenge for 24 hrs by western blot analysis. Type of experiment: functional, cell-based. The conditions noted are these: Sus scrofa.

In the case of `C=C(C)[C@@H]1CC[C@]2(C(=O)OC)CC[C@]3(C)[C@H](CC[C@@H]4[C@@]5(C)CC[C@@H](O)C(C)(C)[C@@H]5CC[C@]43C)[C@@H]12`, the Activity result in experiment [1] was “Dose-dependent effect”.

`C=C(C)[C@@H]1CC[C@]2(C(=O)O)CC[C@]3(C)[C@H](CC[C@@H]4[C@@]5(C)C[C@@H](OC(=O)/C=C/c6ccc(O)cc6)[C@H](O)C(C)(C)[C@@H]5CC[C@]43C)[C@@H]12`: in experiment [1], the Activity entry is “Dose-dependent effect”.

Turning to `C=C(C=O)[C@@H]1CC[C@]2(C(=O)O)CC[C@]3(C)[C@H](CC[C@@H]4[C@@]5(C)CC[C@H](O)C(C)(C)[C@@H]5CC[C@]43C)[C@@H]12`, the result in experiment [2], in experiment [8], in experiment [9] and in [10] was Active. For the same compound, the figures for the Activity in experiment [3], in experiment [4] and in experiment [1] were 80%, 80% and “Dose-dependent effect”, respectively. Besides, the inhibition entry in experiment [5], in [6], in experiment [7] and in experiment [11] was “Active” in each case.

Consider `C=C(C)[C@@H]1CC[C@]2(CO)CC[C@]3(C)[C@H](CC[C@@H]4[C@@]5(C)CC[C@H](OC(C)=O)C(C)(C)[C@@H]5CC[C@]43C)[C@@H]12`, for which the outcome in experiment [2], in experiment [8], in experiment [9] and in [10] was Active. The Activity was 80% in [3], 80% in experiment [4] and “Dose-dependent effect” in experiment [1]. For the same compound, the inhibition entry in experiment [5], in [6], in [7] and in [11] was “Active” in each case.

On to `C=C(C)[C@@H]1CC[C@]2(C(=O)O)CC[C@]3(C)[C@H](CC[C@@H]4[C@@]5(C)C[C@@H](O)[C@H](O)C(C)(C)[C@@H]5CC[C@]43C)[C@@H]12`, for which, in experiment [1], the Activity entry was “Dose-dependent effect”.

On to `C=C(C)[C@@H]1CC[C@]2(C(=O)O)CC[C@]3(C)[C@H](CC[C@@H]4[C@@]5(C)CC[C@H](O)C(C)(C)[C@@H]5CC[C@]43C)[C@@H]12` [BETULINIC ACID], for which the result in experiment [2], in [8], in experiment [9] and in experiment [10] was Active. Besides, the Activity in experiment [3] was 80%; in [4], 80%; in experiment [1], “Dose-dependent effect”. The inhibition entry in experiment [5], in [7] and in experiment [11] was “Active” in each case. The inhibition entry in experiment [6] is “inactive”.

On to `C=C(C)[C@@H]1CC[C@]2(C)CC[C@]3(C)[C@H](CC[C@@H]4[C@@]5(C)CC[C@H](O)C(C)(C)[C@@H]5CC[C@]43C)[C@@H]12` [LUPEOL], for which the result in [2], in experiment [8], in experiment [9] and in [10] was Active. Also, the Activity in [3] was 80%; in experiment [4], 80%; in [1], “Dose-dependent effect”. Also, the inhibition entry in [5], in experiment [6], in [7] and in experiment [11] was “Active” each time.
